Measurements from PMC12365235, “Molecular mechanisms of thiazide-like diuretics-mediated inhibition of the human Na-Cl cotransporter” (Nature Communications, 2025).

Test system: hNCC(V231M)
Assay: 125I- uptake assay, hNCC(V231M) variant
Format: cell-based, human
Conditions: V231M polymorphism
Description: HEK293S cell lines, cultured in 293 Freestyle medium (Life Technologies; plus 10% fetal bovine serum), stably expressing hNCC and its variants were generated following published protocols. Cells were transfected using Lipofectamine 3000 (Invitrogen) with a pSBbi-RP-based plasmid containing hNCC or its variants and the SB100X vector. Puromycin (2 μg/mL; Gemini Bio-Products) was used for selection of stable cell lines.
To prepare for the uptake experiment, cells were plated at 0.5 × 10^6 cells/well in 24-well plates one day in advance. To activate NCC, cells were treated with a chloride-free hypotonic solution composed of 67.5 mM sodium-, 2.5 mM potassium-, 0.25 mM magnesium-, and 0.25 mM calcium-gluconate, as well as 7.5 mM HEPES pH 7.4 (buffered using Tris) at 37 °C for 10 min[72]. After the activation step, the experiments were carried out at room temperature. Ten minutes before the start of ^125I^− uptake, 70 μM Bumetanide (Thermo Scientific Chemicals) and 100 μM 4,4′-diisothiocyanatostilbene-2,2′-disulfonic acid (DIDS; Sigma) were added to suppress background iodide uptake activity. Indicated thiazide diuretics were also added to the indicated concentrations 10 min before the start of ^125I^− uptake. The original buffer was switched to an uptake buffer composed of 135 mM Na-gluconate, 5 mM K-gluconate, 1 mM Mg-gluconate, 1 mM Ca-gluconate, 70 μM bumetanide, 100 μM DIDS, 1 mM NaI, 0.25 μCi/ml Na^125I (American Radiolabeled Chemicals, Inc.), and 15 mM HEPES pH 7.4 (buffered using Tris), in the presence or absence of thiazide diuretics to initiate ^125I^− uptake. The ^125I^− uptake process lasted 1 h and was stopped by two rapid washes using ice-cold 110 mM MgCl2. Cells lysed using 1% sodium dodecyl sulfate (SDS) were analyzed by scintillation counting.
To calculate the fold change of the half-maximal inhibitory concentration (IC50) between hNCC(WT) and different hNCC variants, individual dose-response curves were normalized first using the smallest mean and the value of the lowest concentration as 0% and 100%, respectively. The normalized data were then fitted using the “EC50 shift” nonlinear regression in GraphPad Prism 10 with the shared EC50Control assigned to be the IC50 of hNCC(WT). The following constraints were used in the EC50 shift analysis. The EC50Control was set to be shared across all curves under analysis and constrained to be greater than 0. The EC50Ratio was constrained to be greater than 0. The bottom, top, and HillSlope were constrained to be 0, 100, and −1, respectively. For Fig. 1f, g and Supplementary Fig. 2d, GraphPad Prism 10 was used to perform curve fitting and IC50 calculation for normalized data using y = 100/(1 + (x/IC50)).

## NS(=O)(=O)c1cc2c(cc1Cl)NCNS2(=O)=O [hydrochlorothiazide]
  sensitivity relative to hNCC(WT) (fold lower): nearly as sensitive as the wild-type
